Assay results taken from ChEMBL document CHEMBL1201862, “PubChem BioAssay data set” (2004).
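All cell lines were grown in 96-well plates and treated with compound for 48 hours. Here, GI50 denotes the concentration required for 50% inhibition of growth.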 Active and inactive are the calls of the source. No stated cut-off is given here; in the data, active = GI50 up to about 1.1 µM and inactive = higher.

Key:
Assay in all cases: inhibition of tumour cell growth, NCI panel, 48 h
M14 = system: M14
UACC-62 = system: UACC-62
SF-295 = system: SF-295
IGROV-1 = system: IGROV-1
A549 = system: A549
HCC 2998 = system: HCC 2998
HOP-92 = system: HOP-92
DU-145 = system: DU-145
SK-MEL-28 = system: SK-MEL-28
SF-539 = system: SF-539
786-0 = system: 786-0
SF-268 = system: SF-268
NCI/ADR-RES = system: NCI/ADR-RES
MCF7 = system: MCF7
EKVX = system: EKVX
SNB-19 = system: SNB-19
MOLT-4 = system: MOLT-4
HCT-116 = system: HCT-116
SK-MEL-2 = system: SK-MEL-2
BT-549 = system: BT-549

Measured: GI50

COc1cc(/C=N/c2ccc(S(N)(=O)=O)cc2)cc(OC)c1
inactive: M14 > 50 µM | UACC-62 > 50 µM | SF-295 > 50 µM | IGROV-1 18.2 µM | A549 > 50 µM | HCC 2998 > 50 µM | HOP-92 > 50 µM | DU-145 > 50 µM | SK-MEL-28 > 50 µM | SF-539 25.3 µM | 786-0 > 50 µM | SF-268 > 50 µM | NCI/ADR-RES > 50 µM | MCF7 22.3 µM | EKVX > 50 µM | SNB-19 > 50 µM | MOLT-4 36.9 µM | HCT-116 19.8 µM | SK-MEL-2 > 50 µM | BT-549 > 50 µM

Nc1ccc(S(=O)(=O)c2ccc(/N=[N+](\[O-])c3ccc(S(=O)(=O)c4ccc(N)cc4)cc3)cc2)cc1
inactive: M14 99.3 µM | UACC-62 > 50 µM | SF-295 22.1 µM | IGROV-1 > 92.9 µM | A549 > 100 µM | HCC 2998 > 100 µM | HOP-92 10.1 µM | DU-145 81.7 µM | SK-MEL-28 > 80.4 µM | SF-539 18.9 µM | 786-0 18.5 µM | SF-268 15 µM | NCI/ADR-RES > 74.3 µM | MCF7 > 64.6 µM | EKVX 50 µM | SNB-19 44.4 µM | MOLT-4 > 100 µM | HCT-116 46.5 µM | SK-MEL-2 > 49.1 µM | BT-549 27.2 µM

O=C(/C=C/c1ccc(-c2ccccc2[N+](=O)[O-])o1)NCc1ccc(C(=O)NCCc2ccccc2)cc1
inactive: M14 > 100 µM | UACC-62 6.4 µM | SF-295 > 100 µM | IGROV-1 > 100 µM | A549 > 100 µM | HCC 2998 > 100 µM | HOP-92 > 100 µM | DU-145 > 100 µM | SK-MEL-28 > 100 µM | SF-539 > 100 µM | 786-0 > 100 µM | SF-268 > 100 µM | NCI/ADR-RES > 100 µM | MCF7 > 100 µM | EKVX > 100 µM | SNB-19 > 100 µM | MOLT-4 > 100 µM | HCT-116 > 100 µM | SK-MEL-2 21.2 µM | BT-549 > 100 µM

Cc1ccnc(NS(=O)(=O)c2ccc(NC(=O)c3ccc4nc5ccccc5c(Nc5ccc(S(=O)(=O)Nc6nccc(C)n6)cc5)c4c3)cc2)n1
inactive: M14 > 100 µM | UACC-62 38.3 µM | SF-295 > 100 µM | IGROV-1 63.1 µM | A549 > 100 µM | HCC 2998 37.2 µM | HOP-92 23.2 µM | DU-145 > 100 µM | SK-MEL-28 > 100 µM | SF-539 52 µM | 786-0 > 100 µM | SF-268 28.3 µM | NCI/ADR-RES > 100 µM | MCF7 21.1 µM | EKVX > 100 µM | SNB-19 51.1 µM | MOLT-4 39.9 µM | HCT-116 59 µM | SK-MEL-2 16 µM | BT-549 14.3 µM

C/C=C/C=C\C1OC(O)([C@H](CC)C(=O)NC/C=C/C=C(\C)[C@H](OC)C(C)C2OC(\C=C/C=C/C=C(\C)C(=O)c3c(O)ccn(C)c3=O)[C@H](O)[C@@H]2O)C(O)C(O)C1(C)C (stereo not given in full)
inactive: M14 > 100 µM | UACC-62 96.2 µM | SF-295 > 100 µM | IGROV-1 82 µM | A549 > 100 µM | HCC 2998 > 100 µM | HOP-92 > 100 µM | DU-145 > 100 µM | SK-MEL-28 > 100 µM | SF-539 > 100 µM | 786-0 71 µM | SF-268 > 100 µM | NCI/ADR-RES > 100 µM | MCF7 > 100 µM | EKVX > 100 µM | SNB-19 > 100 µM | MOLT-4 41.9 µM | HCT-116 > 100 µM | SK-MEL-2 > 100 µM | BT-549 > 100 µM

O=C(CC(=O)N1N=C(N(c2ccccc2)c2ccccc2)CC1c1ccccc1)Nc1ccc(Cl)cc1 (stereo not given)
inactive: M14 > 100 µM | UACC-62 > 100 µM | SF-295 > 100 µM | IGROV-1 > 100 µM | A549 > 100 µM | HCC 2998 > 100 µM | HOP-92 > 100 µM | DU-145 > 100 µM | SK-MEL-28 > 100 µM | SF-539 > 100 µM | 786-0 > 100 µM | SF-268 > 100 µM | NCI/ADR-RES > 100 µM | MCF7 > 100 µM | EKVX > 100 µM | SNB-19 > 100 µM | MOLT-4 > 100 µM | HCT-116 > 100 µM | SK-MEL-2 > 100 µM | BT-549 > 100 µM

O=C1c2cc3c(cc2NC(c2ccccc2F)C1O)OCO3 (stereo not given)
inactive: M14 10.4 µM | UACC-62 10.9 µM | SF-295 12.1 µM | IGROV-1 13.5 µM | A549 11.7 µM | HCC 2998 15.5 µM | HOP-92 33.6 µM | DU-145 35 µM | SK-MEL-28 18.5 µM | SF-539 12.2 µM | 786-0 15.5 µM | SF-268 19.4 µM | NCI/ADR-RES 10.5 µM | MCF7 5.27 µM | EKVX 16.9 µM | SNB-19 21.3 µM | MOLT-4 19.5 µM | HCT-116 3.97 µM | SK-MEL-2 24.3 µM | BT-549 57.1 µM

C[N+](C)(C)/N=C\c1ccc(O)c(O)c1
inactive: M14 > 100 µM | UACC-62 > 100 µM | SF-295 > 100 µM | IGROV-1 > 100 µM | A549 > 100 µM | HCC 2998 > 100 µM | HOP-92 > 100 µM | DU-145 > 100 µM | SK-MEL-28 > 59.4 µM | SF-539 > 100 µM | 786-0 > 100 µM | SF-268 > 100 µM | NCI/ADR-RES > 100 µM | MCF7 > 100 µM | EKVX > 100 µM | SNB-19 > 100 µM | MOLT-4 > 100 µM | HCT-116 > 100 µM | SK-MEL-2 > 100 µM | BT-549 > 100 µM

Cc1ccc2c(n1)C(=O)c1cc(C)c(C)cc1C2=O
inactive: M14 > 100 µM | UACC-62 45.9 µM | SF-295 > 100 µM | IGROV-1 63.1 µM | A549 64.9 µM | HCC 2998 98.2 µM | HOP-92 43.1 µM | DU-145 > 100 µM | SK-MEL-28 > 100 µM | SF-539 > 100 µM | 786-0 62.1 µM | SF-268 49.8 µM | NCI/ADR-RES 44 µM | MCF7 67 µM | EKVX 50.8 µM | SNB-19 > 100 µM | MOLT-4 > 100 µM | HCT-116 47.6 µM | SK-MEL-2 > 100 µM | BT-549 > 100 µM

COc1ccc(Nc2n[nH]c(NS(=O)(=O)c3cc(C)c(Cl)cc3S)n2)cc1
inactive: M14 > 100 µM | UACC-62 > 100 µM | SF-295 > 100 µM | IGROV-1 > 100 µM | A549 > 100 µM | HCC 2998 > 100 µM | HOP-92 > 100 µM | DU-145 > 100 µM | SK-MEL-28 > 100 µM | SF-539 > 100 µM | 786-0 > 100 µM | SF-268 > 100 µM | NCI/ADR-RES > 100 µM | MCF7 > 100 µM | EKVX > 100 µM | SNB-19 > 100 µM | MOLT-4 > 100 µM | HCT-116 > 100 µM | SK-MEL-2 > 100 µM | BT-549 > 100 µM
